Counter-ions that a name gives are not always drawn. Like-named read-outs stand apart in the source and are kept apart here.

Consider 32 compounds from patent publication US4000297A, “N-p-chlorobenzoyl tryptophane, salts and compositions thereof” (priority 1971, dated 1976).

Holding throughout (type): in vivo
Data set [1] is described as follows: Acute toxicity (DL50) in the mouse. The settings on record: in vivo, iv (Table 1), read-out: DL50 value. The text has this:
*1 DL50 in the mouse mg/kg iv.
Examples of differences between toxicity (DL50 in
the mouse) by intravenous administration and oral
administration in mg/kg. Variation in therapeutic

Data set [2] has as its system gastric secretion. As to the kind of experiment: Anti-secretive activity in the rat with lig. pylorus, iv. The note with it: read-out: Activity A: anti-secretive activity ED50.
The test system of data set [3] is gastric secretion. As to the kind of experiment: Anti-secretive activity in the rat by gastric stimulus, oral. The note with it: oral (Table 1), read-out: Activity B: anti-secretive activity ED50.
Method: *3 Anti-secretive activity in the rat by gastric stimulus, ED50 mg/k
Data set [4] concerns gastric secretion. The data set is described as follows: Comparison of antisecretive activity, rats with tied pylorus, oral aqueous suspension. The settings on record: oral. The procedure: (*)The antisecretive activity is defined as the dose in mg/kg of body
weight of the animal, which reduces the gastric secretion by 50%. The
evaluation is effected by considering the decrease in quantity of secrete
gastric juice as compared with controls. Rats of an average weight of 200
± 20 grams are employed of which the lower part of the stomach at the
level of the pylorus is tied to collect the gastric juice during the
indicated periods. The preparations are administered orally in the form o

Where [5] appears, read: rat with lig. pylorus, iv (Table 1).

As for `Cc1ccc(C(=O)NC(Cc2c[nH]c3ccccc23)C(=O)O)cc1` (racemic) [Ex.23 (CR555), N-p-toluyl-DL-tryptophane], in data set [1], the LD50 turned out to be 340 mg/kg. In addition, the ED50 with gastric secretion [2] (Rattus norvegicus, iv) was 204 mg/kg; with gastric secretion [3], 172 mg/kg.

For the compound `O=C(NC(Cc1c[nH]c2ccccc12)C(=O)O)c1ccccc1Cl` (racemic) [Ex.51 (CR618), N-o-chlorobenzoyl-DL-tryptophane], the LD50 in data set [1] worked out at 1400 mg/kg. For the same compound, the ED50 was found to be 345 mg/kg with gastric secretion [2] (setting [5]) and 320 mg/kg with gastric secretion [3].

As for `O=C(NC(Cc1c[nH]c2ccccc12)C(=O)O)OCc1ccc(Cl)cc1` (racemic) [Ex. 4 (CR463), N-p-chloro-carbobenzoxy-DL-tryptophane], in data set [1] (iv), the LD50 came out at 217 mg/kg. The ED50 with gastric secretion [2] (Rattus norvegicus, iv) was determined as 161 mg/kg; with gastric secretion [3], 130 mg/kg.

Take `Nc1ccc(C(=O)N[C@@H](Cc2c[nH]c3ccccc23)C(=O)O)cc1` [CR 504 - Calcium salt]: the “Antisecretive activity (dose which reduces the gastric secretion by 50%)” value is recorded as 1480 mg/kg with gastric secretion [4] (2.5 hrs, 150 min); 1865 mg/kg in the data set on gastric secretion [4] (5 hrs, 300 min); more than 2000 mg/kg in the data set with gastric secretion [4] (10 hrs, 600 min).

Regarding `CCc1ccc(COC(=O)N[C@@H](Cc2c[nH]c3ccccc23)C(=O)O)cc1` [Ex.10 (CR500), N-p-ethyl-carbobenzoxy-L-tryptophane], the LD50 in data set [1] (iv) worked out at 158 mg/kg. The ED50 worked out at 142 mg/kg with gastric secretion [2] (Rattus norvegicus, iv) and 117 mg/kg with gastric secretion [3].

Turning to `O=C(N[C@@H](Cc1c[nH]c2ccccc12)C(=O)O)OCc1ccc(C(F)(F)F)cc1` [Ex.11 (CR515), N-p-trifluoromethyl-carbobenzoxy-L-tryptophane], the LD50 in data set [1] (iv) was 175 mg/kg. Moreover, the ED50 in the data set on gastric secretion [2] (Rattus norvegicus, iv) amounted to 112 mg/kg; with gastric secretion [3] it was 92 mg/kg.

For `O=C(N[C@@H](Cc1c[nH]c2ccccc12)C(=O)O)OCc1ccc(Cl)cc1Cl` [Ex.13 (CR470), N-(2,4-dichloro)-carbobenzoxy-L-tryptophane], in data set [1] (iv), the LD50 worked out at 170 mg/kg. In addition, the ED50 in the data set on gastric secretion [2] (setting [5]) turned out to be 130 mg/kg; with gastric secretion [3], 97 mg/kg.

For the compound `O=C(N[C@@H](Cc1c[nH]c2ccccc12)C(=O)O)OCc1c(Cl)cccc1Cl` [Ex.14 (CR495), N-(2,6-dichloro)-carbobenzoxy-L-tryptophane], the LD50 in data set [1] (iv) is 268 mg/kg. Besides, the ED50 in the data set with gastric secretion [2] (setting [5]) was determined as 132 mg/kg; in the data set with gastric secretion [3], 108 mg/kg.

For the compound `O=C(N[C@@H](Cc1c[nH]c2ccccc12)C(=O)O)OCc1cccc(Cl)c1Cl` [Ex.15 (CR499), N-(2,3-dichloro)-carbobenzoxy-L-tryptophane], the LD50 in data set [1] (iv) came out at 175 mg/kg. In addition, the ED50 in the data set with gastric secretion [2] (setting [5]) came out at 100 mg/kg; in the data set with gastric secretion [3], 60 mg/kg.

As to `O=C(N[C@@H](Cc1c[nH]c2ccccc12)C(=O)O)OCc1ccc(Cl)c(Cl)c1` [Ex.16 (CR469), N-(3,4-dichloro)-carbobenzoxy-L-tryptophane], the LD50 in data set [1] (iv) stood at 208 mg/kg. Further, the ED50 in the data set on gastric secretion [2] (Rattus norvegicus, iv) came to 137 mg/kg; in the data set with gastric secretion [3], 104 mg/kg.

Regarding `Cc1ccc(COC(=O)N[C@@H](Cc2c[nH]c3ccccc23)C(=O)O)cc1Cl` [Ex.17 (CR497), N-(3-chloro-4-methyl)-carbobenzoxy-L-tryptophane], in data set [1] (iv), the LD50 is 190 mg/kg. The ED50 was 231 mg/kg in the data set with gastric secretion [2] (Rattus norvegicus, iv) and 196 mg/kg in the data set with gastric secretion [3].

In the case of `O=C(N[C@@H](Cc1c[nH]c2ccccc12)C(=O)O)c1ccc(Br)cc1` [Ex.19 (CR503), N-p-bromo-benzoyl-L-tryptophane], the LD50 in data set [1] came out at 360 mg/kg. In addition, the ED50 in the data set with gastric secretion [2] (Rattus norvegicus, iv) was 111 mg/kg; in the data set on gastric secretion [3] it was 85 mg/kg.

Take `O=C(N[C@@H](Cc1c[nH]c2ccccc12)C(=O)O)c1ccc(C(F)(F)F)cc1` [Ex.20 (CR505), N-p-trifluoromethyl-benzoyl-L-tryptophane]: the LD50 in data set [1] stood at 210 mg/kg. Further, the ED50 in the data set on gastric secretion [2] (Rattus norvegicus, iv) stood at 160 mg/kg; with gastric secretion [3], 110 mg/kg.

Turning to `Cc1ccc(C(=O)N[C@H](Cc2c[nH]c3ccccc23)C(=O)O)cc1` [Ex.22 (CR556), N-p-toluyl-D-tryptophane], in data set [1], the LD50 turned out to be 365 mg/kg. The ED50 with gastric secretion [2] (Rattus norvegicus, iv) was 354 mg/kg; in the data set with gastric secretion [3], 190 mg/kg.

In the case of `N#Cc1ccc(C(=O)N[C@@H](Cc2c[nH]c3ccccc23)C(=O)O)cc1` [Ex.24 (CR512), N-p-cyano-benzoyl-L-tryptophane], the LD50 in data set [1] was determined as 1450 mg/kg. Further, the ED50 was found to be 500 mg/kg in the data set with gastric secretion [2] (Rattus norvegicus, iv) and 360 mg/kg in the data set on gastric secretion [3].

For `O=C(N[C@@H](Cc1c[nH]c2ccccc12)C(=O)O)c1ccc(F)cc1` [Ex.25 (CR506), N-p-fluoro-benzoyl-L-tryptophane], in data set [1], the LD50 was found to be 655 mg/kg. For the same compound, the ED50 amounted to 223 mg/kg in the data set on gastric secretion [2] (Rattus norvegicus, iv) and 295 mg/kg with gastric secretion [3].

As for `COc1ccc(C(=O)N[C@@H](Cc2c[nH]c3ccccc23)C(=O)O)cc1` [Ex.26 (CR507), N-p-methoxy-benzoyl-L-tryptophane], the LD50 in data set [1] was found to be 1000 mg/kg. Also, the results for the ED50 in the data set on gastric secretion [2] (setting [5]) and with gastric secretion [3] were 437 mg/kg and 494 mg/kg, respectively.

For `O=C(O)c1ccc(C(=O)N[C@@H](Cc2c[nH]c3ccccc23)C(=O)O)cc1` [Ex.27 (CR508), N-p-carboxy-benzoyl-L-tryptophane], the LD50 in data set [1] stood at 900 mg/kg. Besides, the ED50 came to 514 mg/kg in the data set with gastric secretion [2] (setting [5]) and 406 mg/kg in the data set on gastric secretion [3].

`O=C(N[C@@H](Cc1c[nH]c2ccccc12)C(=O)O)c1ccc([N+](=O)[O-])cc1` [Ex.29 (CR502), N-p-nitro-benzoyl-L-tryptophane. C2 H5 OH]: in data set [1], the LD50 amounted to 806 mg/kg. Moreover, the ED50 in the data set on gastric secretion [2] (setting [5]) came out at 339 mg/kg; in the data set on gastric secretion [3], 270 mg/kg.

As to `O=C(N[C@@H](Cc1c[nH]c2ccccc12)C(=O)O)c1cccc(Cl)c1` [Ex.30 (CR546), N-m-chloro-benzoyl-L-tryptophane], the LD50 in data set [1] was determined as 560 mg/kg. Further, the ED50 in the data set on gastric secretion [2] (Rattus norvegicus, iv) came out at 210 mg/kg; with gastric secretion [3], 147 mg/kg.

On to `O=C(N[C@@H](Cc1c[nH]c2ccccc12)C(=O)O)OCc1cccc2ccccc12` [Ex.31 (CR514), N-(carbo-alpha-naphthyl-methoxy)-L-tryptophane], for which the LD50 in data set [1] (iv) stood at 160 mg/kg. The ED50 was determined as 128 mg/kg with gastric secretion [2] (setting [5]) and 94 mg/kg with gastric secretion [3].

Take `CCOC(=O)c1ccc(NC(=O)[C@H](Cc2c[nH]c3ccccc23)NC(=O)OCc2ccccc2)cc1` [Ex.33 (CR401), Ethyl-N-carbobenzoxy-L-tryptophyl-p-aminobenzoate]: in data set [1] (iv), the LD50 is 1000 mg/kg. Further, the results for the ED50 with gastric secretion [2] (setting [5]) and with gastric secretion [3] were 470 mg/kg and 320 mg/kg, respectively.

Consider `O=C(N[C@@H](Cc1c[nH]c2ccccc12)C(=O)Nc1ccc(C(=O)Oc2ccc(Cl)cc2Cl)cc1)OCc1ccccc1` [Ex.34 (CR432), 2,4-Dichlorophenyl-N-carbobenzoxy-L-tryptophyl-p-aminobenzoate], for which, in data set [1] (iv), the LD50 was determined as 1000 mg/kg. Moreover, the ED50 came to 370 mg/kg in the data set with gastric secretion [2] (setting [5]) and 310 mg/kg in the data set with gastric secretion [3].

With `O=C(N[C@@H](Cc1c[nH]c2ccccc12)C(=O)Nc1ccc(C(=O)Oc2ccccc2)cc1)OCc1ccccc1` [Ex.35 (CR411), Phenyl-N-carbobenzoxy-L-tryptophyl-p-aminobenzoate], the LD50 in data set [1] (iv) was 1000 mg/kg. Moreover, the ED50 with gastric secretion [2] (setting [5]) turned out to be 610 mg/kg; in the data set with gastric secretion [3], 460 mg/kg.

As to `O=C(N[C@@H](Cc1c[nH]c2ccccc12)C(=O)Nc1ccc(C(=O)OCc2ccccc2)cc1)OCc1ccccc1` [Ex.36 (CR430), Benzyl-N-carbobenzoxy-L-tryptophyl-p-aminobenzoate], in data set [1] (iv), the LD50 came to 1000 mg/kg. For the same compound, the ED50 with gastric secretion [2] (setting [5]) came to 690 mg/kg; with gastric secretion [3], 520 mg/kg.

Take `CCOC(=O)c1ccc(NC(=O)[C@H](Cc2c[nH]c3ccccc23)NC(=O)c2ccccc2)cc1` [Ex.37 (CR402), Ethyl-N-benzoyl-L-tryptophyl-p-aminobenzoate]: the LD50 in data set [1] is 1000 mg/kg. The figures for the ED50 in the data set with gastric secretion [2] (setting [5]) and in the data set on gastric secretion [3] were 310 mg/kg and 460 mg/kg, respectively.

In the case of `COC(=O)Cc1ccc(NC(=O)[C@H](Cc2c[nH]c3ccccc23)NC(=O)OCc2ccccc2)cc1` [Ex.38 (CR417), Methyl-N-carbobenzoxy-L-tryptophyl-p-aminophenylacetate], the LD50 in data set [1] (iv) was determined as 1000 mg/kg. The ED50 in the data set with gastric secretion [2] (setting [5]) and in the data set with gastric secretion [3] was 300 mg/kg throughout.

`O=C(Cc1ccc(NC(=O)[C@H](Cc2c[nH]c3ccccc23)NC(=O)OCc2ccccc2)cc1)OCc1ccccc1` [Ex.39 (CR419), Benzyl-N-carbobenzoxy-L-tryptophyl-p-aminophenylacetate]: the LD50 in data set [1] (iv) came out at 1000 mg/kg. For the same compound, the ED50 was determined as 430 mg/kg in the data set with gastric secretion [2] (setting [5]) and 350 mg/kg in the data set with gastric secretion [3].

For `COC(=O)Cc1ccc(NC(=O)[C@H](Cc2c[nH]c3ccccc23)NC(=O)c2ccccc2)cc1` [Ex.40 (CR418), Methyl-N-benzoyl-L-tryptophyl-p-aminophenylacetate], the LD50 in data set [1] was 1000 mg/kg. The ED50 stood at 290 mg/kg in the data set on gastric secretion [2] (setting [5]) and 180 mg/kg in the data set with gastric secretion [3].

For the compound `O=C(O)c1ccc(NC(=O)[C@H](Cc2c[nH]c3ccccc23)NC(=O)c2ccccc2)cc1` [Ex.42 (CR404), N-benzoyl-L-tryptophyl-p-aminobenzoic acid], the LD50 in data set [1] worked out at 500 mg/kg. Moreover, the ED50 was found to be 284 mg/kg with gastric secretion [2] (setting [5]) and 220 mg/kg with gastric secretion [3].

`O=C(N[C@@H](Cc1c[nH]c2ccccc12)C(=O)Nc1ccc(C(=O)O)cc1)OCc1ccccc1` [Ex.43 (CR422), N-Carbobenzoxy-L-tryptophyl-p-aminobenzoic acid]: the LD50 in data set [1] (iv) was 460 mg/kg. The ED50 turned out to be 321 mg/kg in the data set with gastric secretion [2] (setting [5]) and 180 mg/kg in the data set on gastric secretion [3].

For the compound `O=C(O)Cc1ccc(NC(=O)[C@H](Cc2c[nH]c3ccccc23)NC(=O)OCc2ccccc2)cc1` [Ex.44 (CR435), N-carbobenzoxy-L-tryptophyl-p-aminophenylacetic acid], the LD50 in data set [1] (iv) worked out at 980 mg/kg. Moreover, the ED50 came to 370 mg/kg in the data set with gastric secretion [2] (setting [5]) and 210 mg/kg in the data set with gastric secretion [3].

The ED50 is the midpoint of the dose-response relation.
